Results reported in patent US6737383B1, “Herbicidal oxadiazolidines” (priority 1999, dated 2004).

Experiments:
purple nutsedge = assay: Test B pre/postemergence purple nutsedge; type: in vivo, Cyperus rotundus
Procedure, shortened: (§1)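 Response is a visual 0-to-10 score relative to untreated plants, where 0 means no effect and 10 means complete control, taken twelve to sixteen days after application. Treatments went onto soil at planting and onto foliage of 1- to 4-leaf plants, using a surfactant-containing non-phytotoxic solvent.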

sugar beet = assay: Test B pre/postemergence sugar beet; type: in vivo, Beta vulgaris
Procedure, shortened: as §1

bedstraw = assay: Test B pre/postemergence bedstraw; type: in vivo, Galium aparine
Procedure, shortened: as §1

cocklebur = assay: Test B pre/postemergence cocklebur; type: in vivo, Xanthium strumarium
Procedure, shortened: as §1

surinam grass = assay: Test B pre/postemergence surinam grass; type: in vivo, Brachiaria decumbens; conditions: Postemergence
Procedure, shortened: as §1

wild oat = assay: Test B pre/postemergence wild oat; type: in vivo, Avena fatua
Procedure, shortened: as §1

rape = assay: Test B pre/postemergence rape; type: in vivo, Brassica napus
Procedure, shortened: as §1

giant foxtail = assay: Test B pre/postemergence giant foxtail; type: in vivo, Setaria faberii
Procedure, shortened: as §1

soybean = assay: Test B pre/postemergence soybean; type: in vivo, Glycine max
Procedure, shortened: as §1

wheat = assay: Test B pre/postemergence wheat; type: in vivo, Triticum aestivum
Procedure, shortened: as §1

blackgrass = assay: Test B pre/postemergence blackgrass; type: in vivo, Alopecurus myosuroides
Procedure, shortened: as §1

velvetleaf = assay: Test B pre/postemergence velvetleaf; type: in vivo, Abutilon theophrasti
Procedure, shortened: as §1

corn = assay: Test B pre/postemergence corn; type: in vivo, Zea mays
Procedure, shortened: as §1

morningglory = assay: Test B pre/postemergence morningglory; type: in vivo, Ipomoea hederacea
Procedure, shortened: as §1

crabgrass = assay: Test B pre/postemergence crabgrass; type: in vivo, Digitaria sanguinalis
Procedure, shortened: as §1

pigweed = assay: Test B pre/postemergence pigweed; type: in vivo, Amaranthus retroflexus
Procedure, shortened: as §1

[1] = Postemergence, Rate 62 g/ha, scale 0 to 10, 0 is no effect, 10 is complete control
[2] = Postemergence, Rate 125 g/ha, scale of 0 to 10 where 0 is no effect and 10 is complete control
[3] = Preemergence, Rate 125 g/ha, scale of 0 to 10 where 0 is no effect and 10 is complete control
[4] = Preemergence, Rate 250 g/ha, scale 0 (no effect) to 10 (complete control)
[5] = Rate 62 g/ha, Preemergence, scale 0 to 10
[6] = Rate 250 g/ha, Postemergence, scale 0 to 10, 0 is no effect, 10 is complete control
[7] = Rate 500 g/ha, Postemergence, scale 0 to 10, 0 is no effect, 10 is complete control
[8] = Rate 500 g/ha, Preemergence, scale 0 to 10 (0 no effect, 10 complete control)

CCC(C)n1c(=O)on(C(=O)N(c2ccc(F)cc2)C(C)C)c1=O (stereo not shown) [Compound 751]
0: Plant response rating, Nutsedge (purple nutsedge; [1]) | Nutsedge plant response rating (purple nutsedge; [2]) | Plant response rating, Nutsedge (purple nutsedge; [3]) | Nutsedge plant response rating (purple nutsedge; [4]) | Nutsedge plant response rating (purple nutsedge; [5]) | Nutsedge plant response rating (purple nutsedge; [6]) | Nutsedge plant response rating (purple nutsedge; [8]) | Plant response rating, Bedstraw (bedstraw; [1]) | Plant response rating, Cocklebur (cocklebur; [1]) | Plant response rating, Cocklebur (cocklebur; [3]) | Cocklebur plant response rating (cocklebur; [4]) | Cocklebur plant response rating (cocklebur; [5]) | Cocklebur plant response rating (cocklebur; [8]) | Plant response rating, Wild oats (wild oat; [1]) | Wild oats plant response rating (wild oat; [2]) | Plant response rating, Soybean (soybean; [3]) | Soybean plant response rating (soybean; [5]) | Plant response rating, Wheat (wheat; [1]) | Wheat plant response rating (wheat; [2]) | Wheat plant response rating (wheat; [5]) | Plant response rating, Velvetleaf (velvetleaf; [1]) | Plant response rating, Corn (corn; [1]) | Corn plant response rating (corn; [2]) | Corn plant response rating (corn; [5]) | Corn plant response rating (corn; [6]) | Morningglory plant response rating (morningglory; [5])
4: Rape plant response rating (rape; [5]) | Plant response rating, Wheat (wheat; [3]) | Plant response rating, Corn (corn; [3])
3: Plant response rating, Sugarbeets (sugar beet; [1]) | Sugarbeets plant response rating (sugar beet; [2]) | Sugarbeets plant response rating (sugar beet; [6]) | Sugarbeets plant response rating (sugar beet; [7]) | Plant response rating, B. signalgrass (surinam grass; Rate 62 g/ha, scale 0 to 10, 0 is no effect, 10 is complete control) | B. signalgrass plant response rating (surinam grass; Rate 125 g/ha, scale of 0 to 10 where 0 is no effect and 10 is complete control) | Wild oats plant response rating (wild oat; [5]) | Wild oats plant response rating (wild oat; [6]) | Rape plant response rating (rape; [2]) | Soybean plant response rating (soybean; [2]) | Wheat plant response rating (wheat; [7]) | Velvetleaf plant response rating (velvetleaf; [7])
7: Sugarbeets plant response rating (sugar beet; [8]) | Bedstraw plant response rating (bedstraw; [7]) | B. signalgrass plant response rating (surinam grass; Rate 500 g/ha, scale 0 to 10, 0 is no effect, 10 is complete control) | Rape plant response rating (rape; [4]) | Soybean plant response rating (soybean; [4]) | Soybean plant response rating (soybean; [6]) | Soybean plant response rating (soybean; [7]) | Blackgrass plant response rating (blackgrass; [7]) | Velvetleaf plant response rating (velvetleaf; [5]) | Plant response rating, Crabgrass (crabgrass; [1])
6: B. signalgrass plant response rating (surinam grass; Rate 250 g/ha, scale 0 to 10, 0 is no effect, 10 is complete control) | Plant response rating, Rape (rape; [3]) | Plant response rating, Blackgrass (blackgrass; [1]) | Blackgrass plant response rating (blackgrass; [2]) | Blackgrass plant response rating (blackgrass; [6]) | Redroot pigweed plant response rating (pigweed; [2])
9: Bedstraw plant response rating (bedstraw; [4]) | Rape plant response rating (rape; [8]) | Giant foxtail plant response rating (giant foxtail; [2]) | Giant foxtail plant response rating (giant foxtail; [6]) | Giant foxtail plant response rating (giant foxtail; [7]) | Soybean plant response rating (soybean; [8]) | Blackgrass plant response rating (blackgrass; [5]) | Corn plant response rating (corn; [8]) | Morningglory plant response rating (morningglory; [7]) | Crabgrass plant response rating (crabgrass; [6]) | Crabgrass plant response rating (crabgrass; [7]) | Redroot pigweed plant response rating (pigweed; [6]) | Redroot pigweed plant response rating (pigweed; [7])
2: Plant response rating, Sugarbeets (sugar beet; [3]) | Sugarbeets plant response rating (sugar beet; [5]) | Plant response rating, Bedstraw (bedstraw; [3]) | Cocklebur plant response rating (cocklebur; [2]) | Cocklebur plant response rating (cocklebur; [6]) | Cocklebur plant response rating (cocklebur; [7]) | Plant response rating, Rape (rape; [1]) | Plant response rating, Soybean (soybean; [1]) | Velvetleaf plant response rating (velvetleaf; [2]) | Velvetleaf plant response rating (velvetleaf; [6]) | Corn plant response rating (corn; [7])
8: Plant response rating, Wild oats (wild oat; [3]) | Plant response rating, Giant foxtail (giant foxtail; [1]) | Plant response rating, Velvetleaf (velvetleaf; [3]) | Velvetleaf plant response rating (velvetleaf; [4]) | Velvetleaf plant response rating (velvetleaf; [8]) | Corn plant response rating (corn; [4]) | Plant response rating, Morningglory (morningglory; [1]) | Morningglory plant response rating (morningglory; [2]) | Morningglory plant response rating (morningglory; [6]) | Crabgrass plant response rating (crabgrass; [2])
5: Sugarbeets plant response rating (sugar beet; [4]) | Bedstraw plant response rating (bedstraw; [2]) | Wild oats plant response rating (wild oat; [7]) | Rape plant response rating (rape; [6]) | Rape plant response rating (rape; [7]) | Wheat plant response rating (wheat; [4]) | Wheat plant response rating (wheat; [6]) | Plant response rating, Morningglory (morningglory; [3]) | Morningglory plant response rating (morningglory; [4]) | Morningglory plant response rating (morningglory; [8])
10: Nutsedge plant response rating (purple nutsedge; [7]) | Bedstraw plant response rating (bedstraw; [8]) | Wild oats plant response rating (wild oat; [4]) | Wild oats plant response rating (wild oat; [8]) | Plant response rating, Giant foxtail (giant foxtail; [3]) | Giant foxtail plant response rating (giant foxtail; [4]) | Giant foxtail plant response rating (giant foxtail; [5]) | Giant foxtail plant response rating (giant foxtail; [8]) | Wheat plant response rating (wheat; [8]) | Plant response rating, Blackgrass (blackgrass; [3]) | Blackgrass plant response rating (blackgrass; [4]) | Blackgrass plant response rating (blackgrass; [8]) | Plant response rating, Crabgrass (crabgrass; [3]) | Crabgrass plant response rating (crabgrass; [4]) | Crabgrass plant response rating (crabgrass; [5]) | Crabgrass plant response rating (crabgrass; [8]) | Plant response rating, Redroot pigweed (pigweed; [3]) | Redroot pigweed plant response rating (pigweed; [4]) | Redroot pigweed plant response rating (pigweed; [5]) | Redroot pigweed plant response rating (pigweed; [8])
